Data: paper PMC10674476, “Development of a Novel In Vitro Model to Study Lymphatic Uptake of Drugs via Artificial Chylomicrons” (Pharmaceutics, 2023)
Like-named read-outs stand apart in the source and are kept apart here. Marks after values point to notes of the source that are not given here.

What was measured:
[1] = In vitro lymphatic uptake model (Franz cell, Intralipid receiver, octanol-impregnated PVDF membrane); conditions: 37 °C, 0–4 h, rank among the four tested drugs
Method: The Franz Cell receiver compartment was filled with 12 mL of either Intralipid® or Intralipid® mixed with a potential inhibitor or enhancer and maintained at 37.0 ± 0.5 °C with magnetic stirring at 600 rpm, as shown in Figure 2. A synthetic 0.22 µm Polyvinylidene Fluoride (PVDF) membrane impregnated with octanol was placed between compartments. […] Two mL solutions of the model drugs were added to the donor compartment with the receiver compartment containing either Intralipid® or Intralipid® mixed with an enhancer or an inhibitor. At different time intervals (0–4 h), 0.2 mL samples were withdrawn, extracted, and analyzed for drug content using HPLC with a C18 column (150 mm × 4.6 mm i.d., 5 µm).
Therefore, this in vitro model was developed to replicate this in vivo process. Since certain lipophilic drugs are taken up from the intestinal lumen into enterocytes and subsequently enclosed within chylomicrons, the developed model was designed to include a donor compartment, resembling the intestinal lumen, where the drug solution is placed. Additionally, there was a receiver compartment that contains an artificial chylomicron medium, simulating the environment within enterocytes. These two compartments were separated by an octanol-immersed membrane, which served as a representation of the lipophilic cell membrane found in enterocytes (Figure 2).

[2] = cited from earlier work; for Density: ref ChemBK **, ChemSpider ***, # drugfuture.com, ## chemsrc.com; for PSA (polar surface area): ref DrugBank, in Å2 (unit assumed)
[3] = design: method as in PMID 32785853; conditions: Sprague-Dawley rats, cited from earlier work
[4] = design: method as in PMID 32785853, PMID 29109461; conditions: cited from earlier work
[5] = lipidic vehicles, lymph-cannulated rats; cited from earlier work
[6] = long-chain triglyceride formulation; cited from earlier work
[7] = design: method as in PMID 23200408; conditions: intraduodenal, thoracic duct-cannulated rats; cited from earlier work
[8] = design: method as in PMID 19916501; conditions: 30 mg/kg intraduodenal, mesenteric-cannulated rat; cited from earlier work
[9] = oral; cited from earlier work

Row | SMILES | lymphatic uptake (release into the receiver compartment) [1] | Density [2] | PSA (polar surface area) [2] | HBA (hydrogen-binding acceptors) ([2]; ref PubChem (* DrugBank)) | HBD (hydrogen binding donors) ([2]; ref PubChem (* DrugBank)) | LogP ([2]; ref PubChem (* DrugBank)) | increase in systemic exposure with lipids versus lipid-free formulations [3] | increase in systemic exposure with lipids versus lipid-free formulations ([3]; listed as CBD) | increase in plasma concentration with sesame oil [4] | increase in systemic exposure with sesame oil [4] | pKa ([2]; ref PubChem (* DrugBank)) | total systemic exposure [5] | total bioavailability [6] | transport through the lymphatic system with soybean oil [7] | Cmax in the lymph relative to plasma [8] | systemic exposure compared to testosterone administration [9]
1 | C=C(C)[C@@H]1CCC(C)=C[C@H]1c1c(O)cc(CCCCC)cc1O [Cannabidiol, cannabidiol] | moderate efficiency | 1.04 ^# g/cm^3 | 40.46 * | 2 * | 2 * | 6.3 * | factor of three | three-fold increase | 250 fold | 2.8 fold | – | – | – | – | – | –
2 | CCCCN(CCCC)CCC(O)c1cc2c(Cl)cc(Cl)cc2c2cc(C(F)(F)F)ccc12 (stereo not drawn) [Halofantrine] | – | 1.2 *** g/cm^3 | 23.5 * | 5 | 1 | 8.9 | – | – | – | – | 14.47 | 22.7 % of the administered dose | 19.1% | – | – | –
3 | O=c1c(O)c(-c2ccc(O)c(O)c2)oc2cc(O)cc(O)c12 [Quercetin, quercetin] | moderate efficiency | 1.8 ^## g/cm^3 | 127.45 * | 7 | 5 | 1.48 | – | – | – | – | – | – | – | notably improved | approximately five times higher | –
4 | CO[C@H]1/C=C/O[C@@]2(C)Oc3c(C)c(O)c4c(O)c(c(/C=N/N5CCN(C)CC5)c(O)c4c3C2=O)NC(=O)/C(C)=C\C=C\[C@H](C)[C@H](O)[C@@H](C)[C@@H](O)[C@@H](C)[C@H](OC(C)=O)[C@@H]1C [Rifampicin, rifampicin] | least available | 1.178 ** g/cm^3 | 220.15 * | 15 | 6 | 4.9 | – | – | – | – | – | – | – | – | – | –
5 | CCCCCCCCCCC(=O)O[C@H]1CC[C@H]2[C@@H]3CCC4=CC(=O)CC[C@]4(C)[C@H]3CC[C@]12C [testosterone undecanoate] | – | – | – | – | – | – | – | – | – | – | – | – | – | – | – | higher systemic exposure
